From patent US20120289602A1, “PHARMACEUTICAL COMPOSITION FOR TREATING OR PREVENTING BURN INJURIES” (priority 2009, published 2012) come the findings set out here.

SMILES strings stand for the structures.

What all share (type): in vivo
For test [1], the system named is contact burn injury on the back of rats. Put plainly: Observation of skin appearance on the back after burn injury (zone of stasis). As to conditions: skin on the back 7 days after burn injury, FIG. 2. Here is the method: (§1) To confirm the therapeutic effect of 2-hydroxy-TTBA against burn injury, contact burn injury is induced for 30 seconds on the back of rats (on the both side of skin) using a brass comb preheated for 3 minutes in the boiling water (maintaining at 100° C.). After 5 minutes, 2-hydroxy-TTBA 10 mg/5 ml/kg were administered to intravenously for 5 minutes. Since then, twice-a-day administration (at an interval of 10˜12 hours) was sustained for 7 days on the same conditions. The same amount of saline without the compound was administered to the vehicle-treated group in the same manner. Groups of burn experiments were the same as below table 1.
FIG. 2 is photographs that observed skin on the back 7 days after burn injury. Full thickness burns were induced in the both sides of back of experimental rats using a preheated brass comb with 4 rectangular shapes of size 10×20 mm. At 2 hours after induction, 4 pale-colored or darkish zones of coagulation (or zones of tissue necrosis) and 3 zones of stasis (or zones of tissue injury) appeared on the both sides of back. […]
Therefore, to evaluate the efficacy in this experiment, among the zone of stasis, the remaining 4 regions (a rectangular area indicated the dotted lines) except regions toward the head close to a medication vest among 6 areas appeared in a single rat were analyzed.

Test [2] has the same test system. Put plainly: Measurement of lactate dehydrogenase in serum through blood chemistry after burn injury. Particulars: 10 mg/5 ml/kg intravenously twice a day, FIG. 1. Here is the method:
as §1
The Measurement of Lactate Dehydrogenase in Serum Through Blood Chemistry
Lactate dehydrogenase (LDH) is an enzyme distributed to almost all the tissues and catalyzing reversible reactions between pyruvic acid and lactic acid.
It is known that serum LDH level is elevated when tissues and cells are destroyed. Thus, the amount of LDH was measured in serum samples from each group except hemolyzed samples that may interfere with test results.

Test [3] has the same test system. The experiment in a line: Histology of zone of stasis after burn injury (hematoxylin-eosin, cresyl violet, Masson's trichrom staining). Here is the method: as §1
FIG. 3 is the result comparing the state of the epithelial layer through hematoxylin-eosin staining of tissues according to the groups. […] Some cases that hyperplasia of epidermis thicker than normal epithelial layers occurred could be also observed.
Eschar formation and frequency of wound epidermis formation was measured by analyzing total 28 tissue areas per group (4 zones of stasis per rat, 7 rats per group). As a result, the wound switching frequency of approximately 93% occurred in the burn control group was decreased to about 18% and 4%, respectively, in the veheicle-treated and 2-hydroxy-TTBA-treated groups. Also, the rate of wound epidermis formation was increased by approximately 32% and 72%, respectively, in comparison with the burn control group. The result was shown in the below table 2 (histological appearance: Eschar Formation and frequency of wound epidermis formation).
FIG. 4 was the photograph that observed the state of tissues of full-thickness skin through hematoxylin-eosin staining via 10× microscope.
FIG. 5 is the photograph observed the live cells in the zone of stasis by cresyl violet staining via 10× microscope. In the burn control group and the vehicle-treated group, follicles were rarely observed and large amounts of inflammatory cells were observed throughout the full-thickness skin.
FIG. 6 is the photograph that observed collagen of skin tissues and muscle fibers in the zone of stasis by Masson's trichrom staining. In the normal group, blue-stained collagen was evenly distributed throughout the dermis, and muscle fibers were stained red. In the burn control group, collagen was deposited irregularly below eschar, the level of staining was weak relative to the normal group. Almost of the muscle fibers were damaged and were not stained. In the vehicle-treated group, the amount of collagen was most abundantly observed relative to the other groups, even to a very high level compared to the normal control. In addition, the muscle fibers with damage were not stained, and significant amount of bleeding and infiltration of inflammatory cells were accompanied.

Test [4] shares this test system. The experiment in a line: Contact burn injury in rats: animals that died within 7 days. As to conditions: within 7 days after burn injury, 10 mg/5 ml/kg intravenously, twice a day for 7 days, 7 animals in group. As to the method:
as §1
When analyzing the results, number of animals of the normal group for comparison, number of animals in each group, and the number of animals that died within 7 days after the burn injury were shown in above table 1. Two rats in the burn control group died at 5 and 7 days, respectively, after burn injury, but all of another experimental group survived.

Setting [5] is: 28 tissue areas per group (4 zones of stasis per rat, 7 rats), 7 days after burn.
The mark [6] stands for this setting: zone of stasis, 7 days after burn, FIG. 4.

As to `O=C(O)c1cc(NCc2c(F)c(F)c(C(F)(F)F)c(F)c2F)ccc1O` [2-hydroxy-TTBA, 2-Hydroxy-5-(2,3,5,6-tetrafluoro-4-trifluoromethyl-benzylamino)-benzoic acid], the “Skin condition by the naked eye” value in test [1] is “restored to such a good skin condition that hair growth can be observed by the naked eye”. Moreover, in test [1] (zone of stasis), the “Formation of eschar such as scab (skin appearance)” value is “occurred rarely”. The “LDH value in serum compared to burn control group” value in test [2] is listed as “reduced significantly”. The “rate of wound epidermis formation, increase in comparison with the burn control group” value in test [3] (28 tissue areas per group) is on record as ~72%. Further, in test [3] (setting [5]), the “Eschar formation (%)” value was 3.571% and the “Wound epidermis formation (%)” value is recorded as 71.429%. For the same molecule, the Eschar formation frequency in test [3] (28 tissue areas per group, approximately 93% in burn control group) is reported as ~4%. In test [3] (FIG. 3), the “State of the epithelial layer, hematoxylin-eosin staining” value was “wound epidermis formation was in progress”. Further, in test [3] (FIG. 5), the “Inflammatory cells in the zone of stasis, cresyl violet staining” value was “relatively few inflammatory cells were observed”; the “Live cells in the zone of stasis, cresyl violet staining” value was “live follicles and epithelia were observed”. Further, in test [3] (setting [6]), the “Infiltration of inflammatory cells in full-thickness skin, hematoxylin-eosin staining” value was “considerably inhibited except in the areas of muscle cells and subcutaneous tissues”; the “Protection of skin structures in full-thickness skin, hematoxylin-eosin staining” value is “not only a wound epidermis formation but also protective effects even in the hair follicles, sebaceous glands and muscle layers appeared”. Moreover, in test [4], the “Number of dead animals” value is reported as 0.
